According to patent publication US20130259830A1, “CRTH2 MODULATORS” (Ironwood Pharmaceuticals, Inc., priority 2010, published 2013):

How the values were obtained:
[1] = target: T1, CRTH2 (Homo sapiens, UniProt Q9Y5Y4); experiment: DPBS CD11b antagonist assay (CD11b expression in eosinophils challenged with 15R-Methyl-PGD2); type: cell-based; conditions: polymorphonuclear cells in PBS with CaCl2/MgCl2; agonist 15R-Methyl-PGD2 10 nM; eosinophils gated by flow cytometry
T1 construct: endogenous in cells; host or cells: eosinophils in human whole blood
T1 sequence (Q9Y5Y4 1-395): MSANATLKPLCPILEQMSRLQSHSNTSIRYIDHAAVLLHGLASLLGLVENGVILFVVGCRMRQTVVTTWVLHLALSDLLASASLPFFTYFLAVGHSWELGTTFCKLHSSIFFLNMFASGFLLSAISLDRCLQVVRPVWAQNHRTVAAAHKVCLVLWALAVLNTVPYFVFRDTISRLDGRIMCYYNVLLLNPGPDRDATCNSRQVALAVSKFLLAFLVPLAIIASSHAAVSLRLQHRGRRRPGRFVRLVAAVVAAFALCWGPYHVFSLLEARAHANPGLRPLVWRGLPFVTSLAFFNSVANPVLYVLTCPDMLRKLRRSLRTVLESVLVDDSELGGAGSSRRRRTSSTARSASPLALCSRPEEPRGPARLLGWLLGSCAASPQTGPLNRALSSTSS
Method: DPBS CD111b Antagonist Assay.
The potential CRTH2 antagonist, activity of certain compounds was tested using a CD11b expression assay using essentially the method described by Monneret et al. (J Pharmacol Exp Ther 304:349-55, 2003). Briefly, polymorphonuclear cells (0.5 ml; 10^6/ml cells) in PBS containing 0.9 mM CaCl2 and 0.5 mM MgCl2) were preincubated with various concentrations of test compounds at room temperature for 10 minutes before they were challenged with the agonist 15R-Methyl-PGD2 (10 nM). The incubations were terminated by the addition of ice-cold FACSFlow (BD Biosciences; Cat#342003) and centrifugation (400 g for 5 minutes at 4° C.). The cells were then incubated for 30 minutes at 4° C. with a mixture of PE-labeled mouse anti-human VLA-4 (5 μl; BD Biosciences) and FITC-labeled mouse anti-human CD11b (10 μl; Beckman Coulter). The cells were then incubated with Optilyse C (0.25 ml; Beckman Coulter) for 15 minutes, centrifuged, and then fixed in PBS (0.4 ml; calcium and magnesium free) containing 1% formaldehyde. The distribution of fluorescence intensities among 60,000 cells was measured by flow cytometry. Eosinophils were gated out on the basis of their granularity (high side scatter) and labeling with VLA-4 (PE fluorescence). CD11b was then measured in the eosinophil region on the basis of fluorescence due to FITC. All data were corrected for the value obtained for the corresponding isotope control antibody.

[2] = target: T1, CRTH2; experiment: Human whole blood CD11b antagonist assay (CD11b expression in eosinophils challenged with 15-R-methyl-PGD2); type: cell-based; conditions: 37° C. 10 minutes preincubation, agonist 15R-Methyl-PGD2 10 nM, eosinophils gated by flow cytometry
Method: Human Whole Blood […] Antagonist Assay (Modified from Nicholson, et al. Pulmonary Pharmacology and Therapeutics: 20 (2007); 52-59).
The potential CRTH2 antagonist activity of certain compounds was tested in human whole blood using an assay that tests the ability of the compounds to block the CD11b expression in eosinophils by 15-R-methyl-PGD2. A CRTH2 antagonist should block CD11b expression by subsequently added 15-Methyl-PGD2. Human whole blood (200 μL) was incubated at 37° C. for 10 minutes in the presence of various concentrations of test compounds before being challenged with the agonist 1-5R-Methyl-PGD2 (10 nM). Reactions were terminated by the addition of ice-cold PBS+0.5% BSA+2 mM EDTA (1 mL) and centrifugation (300×g for 5 minutes at 4° C.) Cells were then incubated at 4° C. for 10 min in the presence of human IgG. Cells were then incubated for 30-45 min with a mixture of PE-Cy5-labeled mouse anti-human CD16 (10 ul; BD Biosciences) and FITC-labeled mouse anti-human CD11b (10 μL; Beckman Coulter.) After rinsing (1 mL ice-cold PBS+0.5% BSA+2 mM EDTA), red blood cells were lysed by the addition of 1 mL ice-cold H2O to the cell pellet for 30 sec-1 min immediately followed by the addition of 3.5% NaCl (300 μL.) Cells were then rinsed (2×−1 ml ice cold PBS+0.5% BSA+2m MEDTA) and fixed in PBS containing 1% formaldehyde. The distribution of fluorescence intensities was measured by flow cytometry. Eosinophils were gated out on the basis of their granularity (high side scatter) and absence of CD-16. CD11b was then measured on this eosinophil population on the basis of fluorescence due to FITC.

SMILES | IC50 [1] [nM] | IC50 [2] [nM]
Cc1ccc(S(=O)(=O)c2ncccc2Cc2c3c(n(CC(=O)O)c2C)CC(C)(C)CC3=O)cc1 [Compound I-20, 2-(2,6,6-Trimethyl-4-oxo-3-((2-tosylpyridin-3-yl)methyl)-4,5,6,7-tetrahydro-1H-indol-1-yl)acetic acid] | < 1 | 5 to 20
COc1ccc(S(=O)(=O)c2ncccc2Cc2c3c(n(CC(=O)O)c2C)CC(C)(C)CC3=O)cc1F [Compound I-21, 2-(3-((2-(3-Fluoro-4-methoxyphenylsulfonyl)pyridin-3-yl)methyl)-2,6,6-trimethyl-4-oxo-4,5,6,7-tetrahydro-1H-indol-1-yl)acetic acid] | < 1 | 20 to 100
Cc1c(Cc2ccccc2NS(=O)(=O)c2ccc(F)cc2F)c2c(n1CC(=O)O)CC(C)(C)CC2=O [Compound I-22, 2-(3-(2-(2,4-Difluorophenylsulfonamido)benzyl)-2,6,6-trimethyl-4-oxo-4,5,6,7-tetrahydro-1H-indol-1-yl)acetic acid] | < 1 | 20 to 100
Cc1ccc(S(=O)(=O)Nc2ccccc2Cc2c3c(n(CC(=O)O)c2C)CC(C)(C)CC3=O)cc1 [Compound I-23, 2-(2,6,6-Trimethyl-3-(2-(4-methylphenylsulfonamido)benzyl)-4-oxo-4,5,6,7-tetrahydro-1H-indol-1-yl)acetic acid] | < 1 | 1 to 5
Cc1c(Cc2ccccc2NS(=O)(=O)c2ccccc2)c2c(n1CC(=O)O)CC(C)(C)CC2=O [Compound I-24, 2-(2,6,6-Trimethyl-4-oxo-3-(2-(phenylsulfonamido)benzyl)-4,5,6,7-tetrahydro-1H-indol-1-yl)acetic acid] | < 1 | 5 to 20
Cc1c(Cc2ccccc2NS(=O)(=O)c2ccc(C(F)(F)F)cc2)c2c(n1CC(=O)O)CC(C)(C)CC2=O [Compound I-25, 2-(2,6,6-Trimethyl-4-oxo-3-(2-(4-(trifluoromethyl)phenylsulfonamido)benzyl)-4,5,6,7-tetrahydro-1H-indol-1-yl)acetic acid] | < 1 | 20 to 100
Cc1c(Cc2ccc(S(=O)(=O)c3ccccc3)s2)c2c(n1CC(=O)O)CC(C)(C)CC2=O [Compound I-26, 2-(2,6,6-Trimethyl-4-oxo-3-((5-(phenylsulfonyl)thiophen-2-yl)methyl)-4,5,6,7-tetrahydro-1H-indol-1-yl)acetic acid] | 100 to 500 | > 3000
Cc1c(Cc2ccccc2NS(=O)(=O)c2ccc(C(C)C)cc2)c2c(n1CC(=O)O)CC(C)(C)CC2=O [Compound I-27, 2-(3-(2-(4-Isopropylphenylsulfonamido)benzyl)-2,6,6-trimethyl-4-oxo-4,5,6,7-tetrahydro-1H-indol-1-yl)acetic acid] | < 1 | 20 to 100
Cc1c(Cc2ccccc2S(=O)(=O)N2CCCC2)c2c(n1CC(=O)O)CC(C)(C)C/C2=N\OC(C)(C)C [Compound I-30, (E)-2-(4-(tert-Butoxyimino)-2,6,6-trimethyl-3-(2-(pyrrolidin-1-ylsulfonyl)benzyl)-4,5,6,7-tetrahydro-1H-indol-1-yl)acetic acid] | 1 to 5 | 100 to 500
Cc1c(Cc2ccccc2S(=O)(=O)N2CCCC2)c2c(n1CC(=O)O)CC(C)(C)C/C2=N\OCc1ccccc1 [Compound I-31, (E)-2-(4-(Benzyloxyimino)-2,6,6-trimethyl-3-(2-(pyrrolidin-1-ylsulfonyl)benzyl)-4,5,6,7-tetrahydro-1H-indol-1-yl)acetic acid] | 1 to 5 | 100 to 500
Cc1c(Cc2cccnc2S(C)(=O)=O)c2c(n1CC(=O)O)CC(C)(C)CC2=O [Compound I-32, 2-(2,6,6-Trimethyl-3-((2-(methylsulfonyl)pyridin-3-yl)methyl)-4-oxo-4,5,6,7-tetrahydro-1H-indol-1-yl)acetic acid] | 500 to 3000 | 500 to 3000
Cc1ccc(S(=O)(=O)N(C)c2ccccc2Cc2c3c(n(CC(=O)O)c2C)CC(C)(C)CC3=O)cc1 [Compound I-33, 2-(3-(2-(N,4-dimethylphenylsulfonamido)benzyl)-2,6,6-trimethyl-4-oxo-4,5,6,7-tetrahydro-1H-indol-1-yl)acetic acid] | 1 to 5 | 100 to 500
Cc1c(Cc2ccccc2N(C)S(=O)(=O)c2ccc(C(C)C)cc2)c2c(n1CC(=O)O)CC(C)(C)CC2=O [Compound I-34, 2-(3-(2-(4-Isopropyl-N-methylphenylsulfonamido)benzyl)-2,6,6-trimethyl-4-oxo-4,5,6,7-tetrahydro-1H-indol-1-yl)acetic acid] | 5 to 20 | 500 to 3000
Cc1c(Cc2ccccc2N(C)S(=O)(=O)c2ccccc2)c2c(n1CC(=O)O)CC(C)(C)CC2=O [Compound I-35, 2-(2,6,6-Trimethyl-3-(2-(N-methylphenylsulfonamido)benzyl)-4-oxo-4,5,6,7-tetrahydro-1H-indol-1-yl)acetic acid] | 1 to 5 | 20 to 100
Cc1c(Cc2cc(OCC(F)(F)F)ccc2NS(=O)(=O)c2ccccc2)c2c(n1CC(=O)O)CC(C)(C)CC2=O [Compound I-36, 2-(2,6,6-Trimethyl-4-oxo-3-(2-(phenylsulfonamido)-5-(2,2,2-trifluoroethoxy)benzyl)-4,5,6,7-tetrahydro-1H-indol-1-yl)acetic acid] | 1 to 5 | 20 to 100
Cc1c(Cc2cc3ccccc3n2S(=O)(=O)N2CCOCC2)c2c(n1CC(=O)O)CC(C)(C)CC2=O [Compound I-37] | < 1 | 20 to 100
CCN(c1ccccc1Cc1c2c(n(CC(=O)O)c1C)CC(C)(C)CC2=O)S(=O)(=O)c1ccc(C)cc1 [Compound I-38, 2-(3-(2-(N-Ethyl-4-methylphenylsulfonamido)benzyl)-2,6,6-trimethyl-4-oxo-4,5,6,7-tetrahydro-1H-indol-1-yl)acetic acid] | 1 to 5 | 500 to 3000
Cc1c(Cc2ccccc2S(=O)(=O)N2CCCC2)c2c(n1CC(=O)O)CCNC2=O [Compound I-39, 2-(2-Methyl-4-oxo-3-(2-(pyrrolidin-1-ylsulfonyl)benzyl)-4,5,6,7-tetrahydro-1H-pyrrolo[3,2-c]pyridin-1-yl)acetic acid] | < 1 | 5 to 20
Cc1c(Cc2ccccc2NS(=O)(=O)N2CCCC2)c2c(n1CC(=O)O)CC(C)(C)CC2=O [Compound I-40, 2-(2,6,6-Trimethyl-4-oxo-3-(2-(pyrrolidine-1-sulfonamido)benzyl)-4,5,6,7-tetrahydro-1H-indol-1-yl)acetic acid] | 1 to 5 | 100 to 500
Cc1c(Cc2sccc2S(=O)(=O)c2ccccc2)c2c(n1CC(=O)O)CC(C)(C)CC2=O [Compound I-42] | < 1 | < 1
Cc1c(Cc2ccccc2N(C)S(=O)(=O)N2CCCC2)c2c(n1CC(=O)O)CC(C)(C)CC2=O [Compound I-43, 2-(2,6,6-Trimethyl-3-(2-(N-methylpyrrolidine-1-sulfonamido)benzyl)-4-oxo-4,5,6,7-tetrahydro-1H-indol-1-yl)acetic acid] | 5 to 20 | 20 to 100
Cc1c(Cc2ccccc2NS(=O)(=O)N2CCCC2)c2c(n1CC(=O)O)CC(C)(C)CC2=O [Compound I-44] | 1 to 5 | 100 to 500
